Reference: patent US20050260629A1, “Differential drug sensitivity” (Ludwig Institute for Cancer Research, priority 2004, published 2005)
“Also recorded” adds a separate entry of the source.

Assays:
Type in all cases: cell-based, Human
ASPP1 promoter = ASPP1 promoter luciferase stable U2OS cell line
Procedure: (§1) Cells were co-transfected with 1 μg of the plasmid of interest and 4 μg of pCDNA3, which contains the resistance gene against neomycin for 6 hours. They were washed once with PBS and cultured in medium supplemented with neomycin. Twenty four hours later they were split and plated at different dilutions (from 1:50 to 1:200) in medium containing neomycin. The medium was changed every three days for two weeks until colonies formed. Colonies were picked and sub-cultured into a 24-well plate. After proliferation of each colony, cells were characterized either by luciferase assays or by western blotting according to the cell line.
(§2) Twenty four hours after transfection, the cells were lysed in Reporter Lysis buffer supplied by Promega and assayed using the Luciferase assay kit (Promega), measuring luciferase activity with the Autolumat Plus (Berthold technologies). The fold activation of a particular reporter was determined by the activity of the transfected plasmid divided by the activity of vector alone. The fold increase of activity in response to drug treatment was obtained by the activity in the presence of drug divided by the activity of the untreated sample.
(§3) ASPP might respond to drugs in many ways in cells. To start investigating this, stable cell lines expressing luciferase under the control of the ASPP1 or ASPP2 promoters were created in U2OS cells. For each cell line, two clones were tested with the six drugs used previously. […] At the same time, these cell lines were used to titrate drugs.

Pig3 promoter = assay: Pig3Luciferase stable U2OS cell line
Procedure: as §1, §2
(§4) Pig3Luciferase, Pig3-delFLuciferase (similar to the Pig3 promoter but without the p53 binding site), p21Luciferase, MDM2Luciferase reporters were used to generate four cell lines in U2OS cells.

ASPP2 promoter = ASPP2 promoter luciferase stable U2OS cell line
Procedure: as §1, §2, §3

[1] = tested on: proapoptotic promoter Pig3; assay: Pig3Luciferase reporter transactivation, transient transfection in U2OS cells; settings: treated 24 hours
Procedure: (§5) Adherent cells were grown to a confluence of 70-80% in fresh medium. Cells were plated 24 hours prior to the transfection procedure. The medium on the dishes was replaced with 3 ml of fresh medium 15-30 minutes before the transfection. 2×HBS buffer (280 mM NaCl, 10 mM KCL, 1.4 mM Na2HPO4.2H2O, 12 mM glucose, 39 mM HEPES, adjusted to a pH 6.9-7.3) was diluted in sterile water to a concentration of 1× in a final volume of 300 μl. The required amount of DNA was added using sterile Gilson tips and mixed thoroughly. To form the precipitate, 12.5 μl of 2.5 M CaCl2 was added to the transfection mix and left at room temperature for 12-15 minutes. Six hours later dishes were washed with medium without serum once before adding 3 ml of fresh medium supplemented with 10% serum until further analysis of cells.
as §2
Some of the drugs commonly used in cancer therapy are known to stimulate p53 transactivation activity. To test their effect on a proapoptotic promoter specifically transactivated by p53, U2OS and MCF7 cells (both wild type p53) were transiently transfected with the proapoptotic reporter Pig3Luciferase and then treated for 24 hours with eight different compounds (FIGS. 1A and 1B).
Si—RNA cloned into pSuper plasmid (Brummelkamp et al., Science. 296(5567):550-3, 2002) was transiently transfected with the Pig3 reporter into U2OS cells treated with doxorubicin or cisplatin (FIG. 3A).

MDM2 promoter = assay: MDM2Luciferase stable U2OS cell line
Procedure: as §1, §2, §4

p21 promoter = assay: p21Luciferase stable U2OS cell line
Procedure: as §1, §2, §4

deleted Pig3 promoter = assay: Pig3-delFLuciferase stable U2OS cell line (no p53 binding site)
Procedure: as §1, §2, §4

[2] = tested on: proapoptotic promoter Pig3; assay: Pig3Luciferase reporter transactivation, transient transfection in MCF7 cells; settings: treated 24 hours
Procedure: as §5
as §2, with “sample. […]” for “sample.”

[3] = drug titration, regardless of the concentration

Structure (SMILES) | ability of p53 to transactivate the Pig3 promoter [1] | p21 promoter activity (p21 promoter) | ability of p53 to transactivate the Pig3 promoter [2] | Pig3-Luciferase activity (Pig3 promoter) | ASPP2 promoter activity (ASPP2 promoter; stable U2OS, clone 4) | MDM2 promoter activity (MDM2 promoter) | ASPP1Luciferase reporter activity (ASPP1 promoter; [3]) | Pig3 promoter activity went up by [1] [fold] | other results
O=c1[nH]cc(F)c(=O)[nH]1 [5-Fluorouracil] | able to induce such induction | – | – | – | – | – | – | – | concentration inducing the maximum ASPP1Luciferase reporter activity (ASPP1 promoter; drug titration): 40 µg/mL; ASPP1 promoter activity (ASPP1 promoter; stable U2OS, two clones, after 24 hours, listed as 5-fluorouracil): activates; Pig3 promoter activity induced by (Pig3 promoter): three; ASPP2 promoter activation (ASPP2 promoter; clone 4, titration, at 40 μg/ml): 3 fold; effect on the MDM2 promoter (MDM2 promoter): 7 fold
COc1cccc2c1C(=O)c1c(O)c3c(c(O)c1C2=O)C[C@@](O)(C(=O)CO)C[C@@H]3O[C@H]1C[C@H](N)[C@H](O)[C@H](C)O1 [doxorubicin] | strongly increased | not p21 or MDM2 | strongly increased | respond; also recorded: specifically stimulated | stimulated | not p21 or MDM2 | – | – | ASPP1Luciferase reporter activity (ASPP1 promoter; drug titration, at 2 μM): 2 fold; toxicity in ASPP1Luciferase cells (ASPP1 promoter; drug titration, concentration reached 3 μM): toxic; activity of the deleted Pig3 promoter (deleted Pig3 promoter): did not affect; ASPP2 promoter activity (ASPP2 promoter; FIGS. 4A and 4B (both clones)): activates; ASPP2 promoter activity, increase over the control (ASPP2 promoter; clone 4, titration, at 2 μM (highest effect)): 10 fold; ASPP2 promoter activity (ASPP2 promoter; stable U2OS, clone 3): had an effect
COc1cc([C@@H]2c3cc4c(cc3[C@@H](O[C@@H]3O[C@@H]5CO[C@@H](C)O[C@H]5[C@H](O)[C@H]3O)[C@H]3COC(=O)[C@H]23)OCO4)cc(OC)c1O [etoposide] | – | did not affect | – | did not affect | – | did not affect | – | – | –
CO[C@@]12[C@H](COC(N)=O)C3=C(C(=O)C(C)=C(N)C3=O)N1C[C@@H]1N[C@@H]12 [mitomycin C] | – | did not affect | – | did not affect | – | did not affect | – | – | –
COc1cccc2c1C(=O)c1c(O)c3c(c(O)c1C2=O)C[C@@](O)(C(C)=O)C[C@@H]3O[C@H]1C[C@H](N)[C@H](O)[C@H](C)O1 [daunorubicin] | strongly increased | not p21 or MDM2 | strongly increased | specifically stimulated | stimulated | not p21 or MDM2 | little effect | 34.7 | ASPP2 promoter activity increase (ASPP2 promoter; clone 4, titration, at 150 ng/ml): 4 fold
N.N.[Cl][Pt][Cl] [cisplatin] | did not have the same efficiency as doxorubicin | did not affect | – | did not affect | – | did not affect | little effect | 2.9 | ASPP2 promoter activity (ASPP2 promoter; clone 4, drug titration): no effect
